Measured values as given in US9409966B2, “Glucagon-like peptide-1 derivatives and their pharmaceutical use” (priority 2007, dated 2016).
*1 amine or outer side, *2 acyl side, *3 side chain or, on linkers, in order; H or OH if unused. Where a SMILES comes first, the peptide text is derived from it. Side-chain parts run from the residue outwards. [ ]: non-standard residue; d: D form. The star is where a group is joined. X2 = O=C(O)CCCCCCCCCCCCCCCCC(=O)N[C@@H](CCC(=O)NCCOCCOCC(=O)NCCOCCOCC(=O)N[C@@H](CCCCN*)C(=O)O)C(=O)O; X1 = O=C(CCCCCCCCCCCCCCCc1nnn[nH]1)NS(=O)(=O)CCCC(=O)*; C20 diacid = O=C(O)CCCCCCCCCCCCCCCCCCC(=O)*; γGlu = O=C(O)[C@H](CCC(=O)[*:2])N[*:1]; βAsp = O=C(O)[C@H](CC(=O)[*:2])N[*:1]; AEEA = NCCOCCOCC(=O)O; Aib = CC(C)(N)C(=O)O; Inp = O=C(O)C1CCNCC1; GABA = NCCCC(=O)O

Molecular target: human serum albumin (HSA) (Homo sapiens, UniProt P02768)
Sequence (P02768 25-609): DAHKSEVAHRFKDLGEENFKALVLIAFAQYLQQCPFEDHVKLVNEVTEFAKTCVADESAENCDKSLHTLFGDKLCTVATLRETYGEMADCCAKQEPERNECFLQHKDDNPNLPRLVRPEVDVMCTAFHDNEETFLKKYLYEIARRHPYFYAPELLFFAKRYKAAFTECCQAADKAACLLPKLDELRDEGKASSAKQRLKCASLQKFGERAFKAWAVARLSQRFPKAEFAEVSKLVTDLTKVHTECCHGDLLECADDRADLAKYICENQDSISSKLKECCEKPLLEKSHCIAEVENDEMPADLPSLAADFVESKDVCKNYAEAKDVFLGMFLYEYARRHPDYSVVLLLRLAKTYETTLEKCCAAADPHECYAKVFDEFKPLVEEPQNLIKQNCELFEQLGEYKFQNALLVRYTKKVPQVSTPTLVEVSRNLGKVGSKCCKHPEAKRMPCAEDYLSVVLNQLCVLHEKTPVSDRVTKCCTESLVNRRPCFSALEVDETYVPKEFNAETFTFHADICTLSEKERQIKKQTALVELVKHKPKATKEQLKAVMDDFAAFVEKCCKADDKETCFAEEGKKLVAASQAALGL
Experiment: Albumin binding affinity, competition scintillation proximity assay (SPA)
Description: Streptavidin-SPA beads (GE Healthcare RPNQ0009) were incubated with biotinylated HSA for 5 hours. The beads were washed with buffer to remove unbound HSA. […] After 20 hours of gentle rocking at room temperature the plates were centrifuged and counted on a TopCounter.

EC50	EC50 at 20 hours (human, pH 7.4)	Structure (SMILES)
	150 to 200 nM	CC[C@H](C)[C@H](NC(=O)[C@H](Cc1ccccc1)NC(=O)[C@H](CCC(=O)O)NC(=O)[C@H](CCCNC(=N)N)NC(=O)[C@H](C)NC(=O)[C@H](C)NC(=O)[C@H](CCC(N)=O)NC(=O)[C@H](CCC(=O)O)NC(=O)[C@H](CCC(=O)O)NC(=O)[C@H](CC(C)C)NC(=O)[C@H](Cc1ccc(O)cc1)NC(=O)[C@H](CO)NC(=O)[C@H](CO)NC(=O)[C@@H](NC(=O)[C@H](CC(=O)O)NC(=O)[C@H](CO)NC(=O)[C@@H](NC(=O)[C@H](Cc1ccccc1)NC(=O)[C@@H](NC(=O)CNC(=O)[C@H](CCC(=O)O)NC(=O)C(C)(C)NC(=O)[C@@H](N)Cc1c[nH]cn1)[C@@H](C)O)[C@@H](C)O)C(C)C)C(=O)N[C@@H](CCC(=O)O)C(=O)N[C@@H](Cc1c[nH]c2ccccc12)C(=O)N[C@@H](CC(C)C)C(=O)N[C@H](C(=O)N[C@@H](CCCCN)C(=O)NCC(=O)N[C@@H](CCCNC(=N)N)C(=O)N1CCC[C@H]1C(=O)N[C@@H](CCCCNC(=O)COCCOCCNC(=O)CC[C@H](NC(=O)CC[C@H](NC(=O)CCCNC(=O)CCCS(=O)(=O)NC(=O)CCCCCCCCCCCCCCCc1nnn[nH]1)C(=O)O)C(=O)O)C(=O)O)C(C)C [Example 14, [Aib8,Glu22,Arg26,Glu30,Pro37]GLP-1-(7-37)Lys [2-(2-{2-[4-Carboxy-4-(4-carboxy-4-{4-[4-(16-1H-tetrazol-5-yl-hexadecanoylsulfamoyl)butyrylamino]butyrylamino}butyrylamino)butyrylamino]ethoxy}ethoxy)acetyl]] (H-H[Aib]EGTFTSDVSSYLEEQAAREFIEWLVKGRPK([AEEA-γGlu-γGlu-GABA-X1])-OH; N-terminus and C-terminus assumed)
200 to 400 nM		CC[C@H](C)[C@H](NC(=O)[C@H](Cc1ccccc1)NC(=O)[C@H](CCC(=O)O)NC(=O)[C@H](CCCNC(=N)N)NC(=O)[C@H](C)NC(=O)[C@H](C)NC(=O)[C@H](CCC(N)=O)NC(=O)[C@H](CCC(=O)O)NC(=O)[C@H](CCC(=O)O)NC(=O)[C@H](CC(C)C)NC(=O)[C@H](Cc1ccc(O)cc1)NC(=O)[C@H](CO)NC(=O)[C@H](CO)NC(=O)[C@@H](NC(=O)[C@H](CC(=O)O)NC(=O)[C@H](CO)NC(=O)[C@@H](NC(=O)[C@H](Cc1ccccc1)NC(=O)[C@@H](NC(=O)CNC(=O)[C@H](CCC(=O)O)NC(=O)C(C)(C)NC(=O)[C@@H](N)Cc1c[nH]cn1)[C@@H](C)O)[C@@H](C)O)C(C)C)C(=O)N[C@@H](C)C(=O)N[C@@H](Cc1c[nH]c2ccccc12)C(=O)N[C@@H](CC(C)C)C(=O)N[C@H](C(=O)N[C@@H](CCCNC(=N)N)C(=O)NCC(=O)N[C@@H](CCCNC(=N)N)C(=O)NCCCC[C@H](NC(=O)COCCOCCNC(=O)COCCOCCNC(=O)CC[C@H](NC(=O)CCCCCCCCCCCCCCCCC(=O)O)C(=O)O)C(=O)O)C(C)C [Example 28, N-alpha37-[2-(2-{2-[2-(2-{2-[(S)-4-Carboxy-4-(17-carboxy-heptadecanoylamino)-butyrylamino]-ethoxy}-ethoxy)-acetylamino]-ethoxy}-ethoxy)-acetyl] [Aib8,Glu22,Arg26,Arg34,epsilon-Lys37]GLP-1-(7-37)peptide] (H-H[Aib]EGTFTSDVSSYLEEQAAREFIAWLVRGR-X2)

Further lines, the compound ahead of its results:

Structure (SMILES)	EC50	EC50 at 20 hours (human, pH 7.4)
CC[C@H](C)[C@H](NC(=O)[C@H](Cc1cccc(C(F)(F)F)c1)NC(=O)[C@H](CCC(=O)O)NC(=O)[C@H](CCCNC(=N)N)NC(=O)[C@H](C)NC(=O)[C@H](C)NC(=O)[C@H](CCC(N)=O)NC(=O)[C@H](CCC(=O)O)NC(=O)[C@H](CCC(=O)O)NC(=O)[C@H](CC(C)C)NC(=O)[C@H](Cc1ccc(O)cc1)NC(=O)[C@H](CO)NC(=O)[C@H](CO)NC(=O)[C@@H](NC(=O)[C@H](CC(=O)O)NC(=O)[C@H](CO)NC(=O)[C@@H](NC(=O)[C@H](Cc1ccccc1)NC(=O)[C@@H](NC(=O)CNC(=O)[C@H](CCC(=O)O)NC(=O)[C@H](C)NC(=O)CCc1c[nH]cn1)[C@@H](C)O)[C@@H](C)O)C(C)C)C(=O)N[C@@H](C)C(=O)N[C@@H](Cc1c[nH]c2ccccc12)C(=O)N[C@@H](CC(C)C)C(=O)N[C@H](C(=O)N[C@@H](CCCNC(=N)N)C(=O)NCC(=O)N[C@@H](CCCNC(=N)N)C(=O)N[C@@H](CCCCNC(=O)COCCOCCNC(=O)COCCOCCNC(=O)C[C@@H](NC(=O)C1CCN(C(=O)CCCCCCCCCCCCCCCCC(=O)O)CC1)C(=O)O)C(N)=O)C(C)C [Example 3, N-epsilon37-[2-(2-[2-(2-[2-(2-((R)-3-[1-(17-Carboxyheptadecanoyl)piperidin-4-ylcarbonylamino]3-carboxypropionylamino)ethoxy)ethoxy]acetylamino)ethoxy]ethoxy)acetyl][DesaminoHis 7,Glu22,Arg26,Arg34,Phe(m-CF3)28]GLP-1-(7-37)amide]	1500 to 2000 nM	
CC[C@H](C)[C@H](NC(=O)[C@H](Cc1ccccc1)NC(=O)[C@H](CCC(=O)O)NC(=O)[C@H](CCCNC(=N)N)NC(=O)[C@H](C)NC(=O)[C@H](C)NC(=O)[C@H](CCC(N)=O)NC(=O)[C@H](CCC(=O)O)NC(=O)[C@H](CCC(=O)O)NC(=O)[C@H](CC(C)C)NC(=O)[C@H](Cc1ccc(O)cc1)NC(=O)[C@H](CO)NC(=O)[C@H](CO)NC(=O)[C@@H](NC(=O)[C@H](CC(=O)O)NC(=O)[C@H](CO)NC(=O)[C@@H](NC(=O)[C@H](Cc1ccccc1)NC(=O)[C@@H](NC(=O)CNC(=O)[C@H](CCC(=O)O)NC(=O)C(C)(C)NC(=O)[C@@H](N)Cc1c[nH]cn1)[C@@H](C)O)[C@@H](C)O)C(C)C)C(=O)N[C@@H](CCCCNC(=O)COCCOCCNC(=O)COCCOCCNC(=O)C[C@H](NC(=O)C1CCN(C(=O)CCCCCCCCCCCCCCCCCCC(=O)O)CC1)C(=O)O)C(=O)N[C@@H](Cc1c[nH]c2ccccc12)C(=O)N[C@@H](CC(C)C)C(=O)N[C@H](C(=O)N[C@@H](CCCCN)C(=O)NCC(=O)N[C@@H](CCCNC(=N)N)C(=O)NCC(=O)O)C(C)C [Example 4, N-epsilon30{2-[2-(2-{2-[2-((S)-3-carboxy-3-{[1-(19-carboxynonadecanoyl)piperidine-4-carbonyl]amino}propionylamino)ethoxy]ethoxy}acetylamino)ethoxy]ethoxy}acetyl [Aib8,Glu22,Arg26,Lys30]GLP-1-(7-37)]	200 to 400 nM	
CC[C@H](C)[C@H](NC(=O)[C@H](Cc1ccccc1)NC(=O)[C@H](CCC(=O)O)NC(=O)[C@H](CCCNC(=N)N)NC(=O)[C@H](C)NC(=O)[C@H](C)NC(=O)[C@H](CCC(N)=O)NC(=O)[C@H](CCC(=O)O)NC(=O)[C@H](CCC(=O)O)NC(=O)[C@H](CC(C)C)NC(=O)[C@H](Cc1ccc(O)cc1)NC(=O)[C@H](CO)NC(=O)[C@H](CO)NC(=O)[C@@H](NC(=O)[C@H](CC(=O)O)NC(=O)[C@H](CO)NC(=O)[C@@H](NC(=O)[C@H](Cc1ccccc1)NC(=O)[C@@H](NC(=O)CNC(=O)[C@H](CCC(=O)O)NC(=O)C(C)(C)NC(=O)[C@@H](N)Cc1c[nH]cn1)[C@@H](C)O)[C@@H](C)O)C(C)C)C(=O)N[C@@H](C)C(=O)N[C@@H](CCCCNC(=O)COCCOCCNC(=O)COCCOCCNC(=O)C[C@H](NC(=O)C1CCN(C(=O)CCCCCCCCCCCCCCCCCCC(=O)O)CC1)C(=O)O)C(=O)N[C@@H](CC(C)C)C(=O)N[C@H](C(=O)N[C@@H](CCCNC(=N)N)C(=O)NCC(=O)N[C@@H](CCCNC(=N)N)C(=O)NCC(=O)O)C(C)C [Example 6, N-epsilon31-(2-{2-[2-(2-{2-[2-((S)-3-Carboxy-3-{[1-(19-carboxy-nonadecanoyl)piperidine-4-carbonyl]amino}propionylamino)ethoxy]ethoxy}acetylamino)ethoxy]ethoxy}acetyl)[Aib8,Glu22,Arg26,Lys31,Arg34]GLP-1-(7-37)] (H-H[Aib]EGTFTSDVSSYLEEQAAREFIAK([AEEA-AEEA-βAsp-Inp-C20 diacid])LVRGRG-OH)	200 to 400 nM	
